# Reference: US6893821B2, “Agents that modulate DNA-PK activity and methods of use thereof” (The Regents of the University of California, priority 2000, dated 2005)
# How the values were obtained:
# IKKα = assay: In vitro IKK kinase assay: recombinant IKKα incubated with DNA-PK with ISS-ODN; format: biochemical; details: IKKα incubated with DNA-PK in the presence of ISS-ODN; not beyond DNA-PK alone
# Protocol: (§1) The ODNs (ps-ss) used include an ISS-ODN with an active CpG motif (AACGTT), a methylated ISS-ODN at the ^5C of the CpG dinucleotide (AA*CGTT) and various control ODNs. These ODNs were incubated at concentrations of 0, 0.1, 0.3, or 1 ng/reaction. The po-ISS-ODN was incubated at concentration of 20, 50 or 100 ng/reaction. The po-ds-ISS-ODN was incubated at concentration of 0, 0.5, 1, 2, 5 or 10 ng/reaction. The bacterial or calf thymus DNAs were each incubated at concentration of 1, 2 or 5 ng/reaction. Electrophoretic gel mobility shift assay (EMSA) was performed as previously described. Chu et al. (1999) Immunity 11:721-731; and Li et al., 1999, supra). In vitro IKK kinase assays were performed using purified IKK derived from Sf9 insect cell lysates as was previously described. Zandi et al. (1998) Science 281:1360-1363.
# To explore a role of ISS-activated DNA-PK in IKK activation we tested whether affinity-purified DNA-PK can directly activate recombinant IKKα or IKKβ purified from Sf9 cells (Zandi et al., 1998, supra). […] Furthermore, although DNA-PKcs phosphorylated IκBα that activity was considerably lower than that achieved by IKKβ plus DNA-PK. […] Recombinant IKKβ was pre-incubated with DNA-PK in the presence or absence of ISS-ODN followed by immunoprecipitation of IKKβ and IκB kinase activity was measured. […] We next determined whether DNA-PK phosphorylates IKKβ.
# NF-κB = NF-κB activation in treated BMDM (EMSA); format: cell-based, mice
# Protocol: as §1
# [1] = tested on: bone marrow derived macrophages (BMDM); assay: IL-6 and IL-12 levels in BMDM culture supernatants by ELISA; format: cell-based, mice
# Protocol: Ku70^−/− and Ku80^−/− mice and their wild-type (wt) control on the 129 genetic background were generated by Dr. G. Li and bred at Memorial Sloan-Kettering Cancer Center (MSKCC), New York, N.Y. BMDM from wt, Ku70^−/− and Ku80^−/− mice (MSKCC) were prepared as was previously published (Martin-Orozco et al. (1999) Int. Immunol. 11:1111), and maintained in DMEM with 10% FBS, antibiotics and 20% L-cell medium and cultured for about 10 days to allow them to mature. BMDM were seeded (2.5×10^5/well in triplicate) on 96-well plates and treated with LPS (10 μg/ml), ISS-ODN (5 μg/ml) or M-ODN (5 μg/ml).
# BMDM (2.5×10^5/well) from wt, or Ku70^−/− and Ku80^−/− mice were treated with LPS (1 μg/ml), ISS-ODN (5 μg/ml) or M-ODN (5 μg/ml) for 24 hours. IL-6 (A) or IL-12 (B) levels in the supernatants were determined by ELISA. Results are means±S.D, of 5 separate experiments for wt and Ku70^−/− and 3 separate experiments for Ku80^−/− mice. (C) BMDM were incubated with LPS (10 μg/ml) or ISS-ODN (5 μg/ml) for 6.5 hours. Total RNA was isolated and analyzed for the presence of IL-6, IL-12 and GAPDH messages by a Northern blot assay, as described in Example 1. Results are means±S.D. of 5 separate experiments for wt and Ku70^−/− and 3 separate experiments for Ku80^−/− mice.
# DNA-PKcs^−/− and their wt control mice on the 129 genetic background were generated by Dr. G. C. Li and bred at Memorial Sloan-Kettering Cancer Center, New York, N.Y. IKKβ^−/− Tnfr1^−/− mice were generated by Drs. Z-W Li and Karin M. ATM^−/− mice on the C57BL/6 background were generated and bred by Dr. Y. Xu (UCSD) as was previously described (Xu et al.(1996) Genes Dev. 10:2411-2422) while their wild-type (wt) control were purchased from Jackson Laboratories (Bar Harbor, Me.). BMDMs from wt, DNA-PKcs^−/− mice, IKKβ^−/− Tnfr1^−/− and ATM^−/− mice were prepared as was previously published (Martin-Orozco et al. (1999) Intl. Immunol. 11:1111-1118), maintained in DMEM with 10% FBS, antibiotics and 20% L-cell medium and cultured for 7-10 days to allow them to mature. Prior to use BMDM were seeded (2.5×10^5/well in triplicate) in 96-well plates and than treated with LPS (1 μg/ml), ISS-ODN (5 μg/ml) or M-ODN (5 μg/ml), po-ISS-ODN (10 μg/ml) or po-ds-ISS-ODN (10 μg/ml), LPS-free, ultra pure bacterial DNA (E. coli, Sigma) (15 μg/ml) or methylated bacterial DNA or LPS-free, ultra pure calf thymus DNA (Sigma) (15 μg/ml). Methylation of bacterial DNA was performed by SssI methylase (Biolab, Boston, Mass.) (15 μg/ml) following manufacturer's instruction. Where indicated the PI3K inhibitor wortmannin (Wm), at various concentrations, was added to ISS-ODN or LPS stimulated BMDMs. After 24 hours in culture, the supernatants were collected and assayed for IL-6 and IL-12 levels by ELISA kits (PharMingen, San Diego, Calif.).
# DNA-PK = biological target: T1, DNA-PK (Homo sapiens, UniProt P12956+P13010+P78527); assay: In vitro DNA-PK phosphorylation assay (affinity-purified DNA-PK, GST-p53 (1-70) substrate); format: biochemical; details: 30° C., 30 minutes; ps-ss ODNs 0-1, po-ISS-ODN 20-100, po-ds-ISS-ODN 0-10, genomic DNAs 1-5 ng/reaction
# T1 construct: purchased Promega
# Protocol: The in vitro DNA-PK phosphorylation assay was performed according to Hammarsten et al. (2000), supra, with modification. Briefly, affinity-purified DNA-PK (Promega, Mo.) was incubated with various DNA preparations (described below), 0.5 μg of GST-p53 (1-70) and 3.3 μCi of γ-^32p-ATP in a 20 μl reaction buffer (10 mM Tris-Cl, 5 mM MgCl2, 0.3 mM EDTA and 10 μM ATP) at 30° C. for 30 minutes. The reaction was stopped by addition of 4× loading buffer. The samples were boiled, loaded on 9% SDS-PAGE, transferred onto a PVDF membrane and visualized by autoradiography.
# as §1
substance,measurement,setting,value
5′-TGACTGTGAACGTTCGAGATGA-3′ [ISS-ODN],IκB kinase activity of IKKα,IKKα,Only a small enhancement
same,"NF-κB activation, wt vs ATM-deficient BMDM",NF-κB; ATM-deficient BMDM,no differences were observed
same,NF-κB activation,NF-κB; DNA-PKcs-/- BMDM,impaired NF-κB activation
same,NF-κB activation,NF-κB; IKKβ-/- Tnfr-/- BMDM (absence of IKKβ),prevented
same,IL-6 and IL-12 induction,[1]; ATM-deficient BMDM,normal induction
same,IL-6 and IL-12 induction,[1]; DNA-PKcs-deficient BMDM in comparison to wt,Very low levels
same,IL-6 and IL-12 induction,[1]; IKKβ-/- Tnfr-/- BMDM,significantly reduced
same,IL-6 and IL-12 secretion,"[1]; Ku70-/- and Ku80-/- BMDM as compared to wt, 24 hours",very low levels
same,DNA-PK activity in vitro (phosphorylation of the N-terminal portion of p53),DNA-PK,stimulated DNA-PK activity
